Patent US8829015B2 (Novartis AG, priority 2005, dated 2014)
In brackets after ≈: the same amount, converted by molar mass. Where a name gives a salt, the structure may show the parent alone. Each block holds one molecule with its values, some of them ahead of it.

Legend:
[1] = Hygroscopicity (water uptake); format: physicochemical; details: 25° C. up to 80% r.h.
[2] = Thermal properties by TGA and DSC; format: physicochemical
Source text: Form A's basic thermal properties were studied by thermogravimetric analysis (TGA) and differential scanning calorimetry (DSC) and are as follows:

[3] = Equilibration of free base forms with solvents, XRPD; format: physicochemical
Source text: The solid part was investigated by XRPD.

physchem [4] = details: aqueous buffer solution, thermodynamic from solid
physchem [5] = details: tetrahydrofuran/water (1:1), 25 °C, aqueous with cosolvent or surfactant or cyclodextrin, thermodynamic from solid
[6] = Intrinsic dissolution rate (rotating disk); format: physicochemical; details: for Intrinsic dissolution rate: 37° C., 200 rpm
Experimental: Intrinsic Dissolution Rate (IDR): Dissolution rate measurements were performed at 37° C. using the rotating disk method (VanKell Instrument). A single rotation speed of 200 rpm was used. For IDR in 0.1N HCl, an 800 mL volume, and for IDR in water, a 200 mL volume were used. The solution was continuously pumped through a UV measuring cell and recycled to the dissolution vessel.
The measurements were carried out on a VanKel instrument using a Cary 100 photometer.

[7] = pH of 1% solution or suspension in water; format: physicochemical; details: 1% in water
[8] = Compression with a hydraulic press, XRPD; format: physicochemical; details: 5 minutes at 10 tons, room temperature
[9] = Wetting with granulating solvent, XRPD; format: physicochemical; details: dried under vacuum
Source text: The material is vortexed between each addition. Then the material is dried under vacuum to <2% or less and evaluated for form and degree of crystallinity by XRPD or DSC.

[10] = Equilibration of hydrochloride forms A, B and C with solvents, XRPD; format: physicochemical
Source text: Then the solutions were filtered and the solid part investigated by XRPD.

[11] = Stability studies on storage; format: physicochemical; details: storage at various relative humidities
[12] = Form conversion on exposure to solvent vapor, air, moisture or room conditions; format: physicochemical; details: in the presence of ethanol
[13] = Solubility by gravimetric techniques at different temperatures, residue by XRPD
[14] = Equilibration of hydrochloride form B with solvents (approximate solubility by gravimetry, form by XRPD); details: for Solubility: equilibrated at least 20 hours
[15] = thirteen solvents, one day, 25° C.
[16] = 0.1N HCl, 50° C., after 24 hours

- hygroscopicity [1]: slightly hygroscopic
- maximum water uptake [1]: less than 2%
- Decomposition temperature [2]: >300 °C
- form transition on equilibration [3, 15]: No form transitions occurred
- Solubility (physchem [4]; pH 1, simulated gastric fluid): > 200 µg/mL
- Solubility (physchem [5]): 1780 µg/mL (≈ 3360 µM)
Structure (SMILES): Cc1cn(-c2cc(NC(=O)c3ccc(C)c(Nc4nccc(-c5cccnc5)n4)c3)cc(C(F)(F)F)c2)cn1 [Form A of the free base]

- hygroscopicity [1]: not hygroscopic
- maximum water uptake [1]: less than 0.2%
- Decomposition temperature [2]: >300 °C
- form transition on equilibration ([3]; seven solvents (methanol, ethanol, 2-propanol, ethyl acetate, acetone, tetrahydrofuran, acetonitrile), at least 48 hours, room temperature): No form transition occurred
- Intrinsic dissolution rate ([6]; Water, listed as Free base form B): 0.0013 mg min^−1cm^−2
- Intrinsic dissolution rate ([6]; pH 1 (0.1 N HCl)): 0.17 mg min^−1cm^−2
- pH of 1% solution or suspension in water ([7]; listed as Free base form B): 7.99
- Solubility (physchem [4]; pH 2.8, aqueous buffer): 2.8 µg/mL (≈ 5.29 µM)
Structure (SMILES): Cc1cn(-c2cc(NC(=O)c3ccc(C)c(Nc4nccc(-c5cccnc5)n4)c3)cc(C(F)(F)F)c2)cn1 [Form B of the free base]
- form transition on equilibration [3, 15]: No form transitions occurred with the exception of one trial of form B in water

- change of crystalline modification (by XRPD) after compression [8]: no change of crystalline modification
- XRPD results after granulation ([9]; granulating solvent Ethanol): No change
- XRPD results after granulation ([9]; granulating solvent Water): No change
- form transition on equilibration ([10]; 10 different solvents (ethanol, methanol, water, ethanol/water 99:1, methanol/water 99:1 and 99.3:0.7, methanol/HCl 0.1N, diethylether, hexane, tetrahydrofuran), one day, 25° C.): No form transitions occurred
- Intrinsic dissolution rate ([6]; Water, listed as Hydrochloride monohydrate (form B)): 0.0024 mg min^−1cm^−2
- Intrinsic Dissolution Rate value ([6]; dissolution medium HCl 0.0001 N): 0.0010 mg/min/cm^2
- Intrinsic Dissolution Rate value ([6]; dissolution medium HCl 0.001 N): 0.0045 mg/min/cm^2
- Intrinsic Dissolution Rate value ([6]; dissolution medium HCl 0.01 N): 0.0224 mg/min/cm^2
- Intrinsic Dissolution Rate value ([6]; dissolution medium HCl 0.1 N): 0.1003 mg/min/cm^2
- Intrinsic Dissolution Rate value ([6]; dissolution medium Water): 0.0001 mg/min/cm^2
- Intrinsic dissolution rate ([6]; pH 1 (0.1 N HCl)): 0.17 mg min^−1cm^−2
- pH of 1% solution or suspension in water ([7]; listed as Hydrochloride monohydrate (form B)): 2.53
- form transition after storage [11]: No form transitions were observed
- form conversion [12]: converts to form A
- Solubility ([13]; 0.0001N HCl, 25° C., after 24 hours): 470 µg/mL
- Solubility ([13]; 0.0001N HCl, 50° C., after 24 hours): 1320 µg/mL
- Solubility ([13]; 0.001N HCl, 25° C., after 24 hours): 700 µg/mL
- Solubility ([13]; 0.001N HCl, 50° C., after 24 hours): 1340 µg/mL
- Solubility ([13]; 0.01N HCl, 25° C., after 24 hours): 690 µg/mL
- Solubility ([13]; 0.01N HCl, 50° C., after 24 hours): 1440 µg/mL
- Solubility ([13]; 0.1N HCl, 25° C., after 24 hours): 2360 µg/mL
- Solubility [13, 16]: 6620 µg/mL
- XRPD (form of the solid) [13, 16]: B + A
- Solubility ([13]; Methanol, 25° C., after 24 hours): 14370 µg/mL
- Solubility ([13]; Methanol, 50° C., after 24 hours): 52110 µg/mL
- Solubility ([13]; Methanol/Water (95/5) v/v, 20° C., 10 minutes): 13640 µg/mL
- Solubility ([13]; Methanol/Water (95/5) v/v, 20° C., 1 hour): 13430 µg/mL
- Solubility ([13]; Methanol/Water (95/5) v/v, 20° C., 24 hours): 13010 µg/mL
- Solubility ([13]; Methanol/Water (95/5) v/v, 45° C., 10 minutes): 34490 µg/mL
- Solubility ([13]; Methanol/Water (95/5) v/v, 45° C., 1 hour): 38180 µg/mL
- Solubility ([13]; Methanol/Water (95/5) v/v, 45° C., 24 hours): 41700 µg/mL
- Solubility ([13]; Methanol/Water (95/5) v/v, −10° C., 10 minutes): 9420 µg/mL
- Solubility ([13]; Methanol/Water (95/5) v/v, −10° C., 1 hour): 6650 µg/mL
- Solubility ([13]; Methanol/Water (95/5) v/v, −10° C., 24 hours): 4850 µg/mL
- Solubility ([13]; Methanol/Water (99.5/0.5) v/v, 20° C., 10 minutes): 12900 µg/mL
- Solubility ([13]; Methanol/Water (99.5/0.5) v/v, 20° C., 1 hour): 13780 µg/mL
- Solubility ([13]; Methanol/Water (99.5/0.5) v/v, 20° C., 24 hours): 12210 µg/mL
- Solubility ([13]; Methanol/Water (99.5/0.5) v/v, 45° C., 10 minutes): 33290 µg/mL
- Solubility ([13]; Methanol/Water (99.5/0.5) v/v, 45° C., 1 hour): 39390 µg/mL
- Solubility ([13]; Methanol/Water (99.5/0.5) v/v, 45° C., 24 hours): 40400 µg/mL
- Solubility ([13]; Methanol/Water (99.5/0.5) v/v, −10° C., 10 minutes): 7620 µg/mL
- Solubility ([13]; Methanol/Water (99.5/0.5) v/v, −10° C., 1 hour): 5630 µg/mL
- Solubility ([13]; Methanol/Water (99.5/0.5) v/v, −10° C., 24 hours): 4000 µg/mL
- Solubility ([13]; Water, 25° C., after 24 hours): 1280 µg/mL
- Solubility ([13]; Water, 50° C., after 24 hours): 1400 µg/mL
- Solubility ([14]; Acetonitrile, 25° C.): 0.3 mg/g
- Solubility ([14]; Acetonitrile, 50° C.): 2.1 mg/g
- Solubility ([14]; Acetonitrile-water 1:1, 25° C.): 10.3 mg/g
- Solubility ([14]; DMSO, 50° C.): >27.5 mg/g
- Solubility ([14]; Ethanol (96%), 25° C.): 3.9 mg/g
- Solubility ([14]; Ethanol (96%), 50° C.): 22.4 mg/g
- Solubility ([14]; Ethanol, 50° C.): 26.5 mg/g
- Solubility ([14]; Ethanol-water 1:1, 50° C.): 17.2 mg/g
- Solubility ([14]; Ethyl acetate, 25° C.): 0.3 mg/g
- Solubility ([14]; Ethyl acetate, 50° C.): 3.0 mg/g
- Solubility ([14]; Methanol, 25° C.): 16.3 mg/g
- Form (XRPD) after equilibration ([14]; Methanol, 50° C., at least 20 hours): Solvate (as wet cake - dries to B)
- Solubility ([14]; Methanol, 50° C.): >27.5 mg/g
- Solubility ([14]; Propan-2-ol, 25° C.): 1.5 mg/g
- Solubility ([14]; Propan-2-ol, 50° C.): 4.8 mg/g
- Solubility ([14]; Tetrahydrofuran, 25° C.): 5.8 mg/g
- Solubility ([14]; Tetrahydrofuran-water 1:1, 25° C.): 12.2 mg/g
- Solubility ([14]; Toluene, 25° C.): 1.3 mg/g
- Solubility ([14]; Toluene, 50° C.): 5.6 mg/g
Structure (SMILES): Cc1cn(-c2cc(NC(=O)c3ccc(C)c(Nc4nccc(-c5cccnc5)n4)c3)cc(C(F)(F)F)c2)cn1 [Form B of the hydrochloride salt]
- form transition on equilibration ([10]; ethanol, 50° C., 2 days): transitioned to a mixture of forms A and B
